For experiment [1], the target named is T1, Bromodomain-containing protein 4 (Homo sapiens, UniProt O60885). Description: Inhibition of His6-tagged human BRD4 bromodomain-1 (N44 to E168 residues) expressed in Escherichia coli BL21(DE3) using biotinylated-H4KAc4 as substrate by AlphaScreen assay.
The target in experiment [2] is T1, Bromodomain-containing protein 4.
Description: Binding affinity to His6-tagged human BRD4 bromodomain-1 (N44 to E168 residues) expressed in Escherichia coli BL21(DE3) assessed as change in melting temperature at 200 uM by SYPRO orange dye based fluorescence assay
Experiment [3] has as its system LNCaP C4-2B. Description: Antiproliferative activity against human C4-2B cells treated at 12 hrs post cell seeding measured at 72 to 144 hrs post cell seeding by Cell-Titer Glo assay. In kind it is functional, cell-based.
The subject of experiment [4] is VCaP. The experiment in a line: Antiproliferative activity against human VCaP cells treated at 12 hrs post cell seeding measured at 72 to 144 hrs post cell seeding by Cell-Titer Glo assay. In kind it is functional, cell-based.
The subject of experiment [5] is CWR22R. The experiment in a line: Antiproliferative activity against human 22Rv1 cells treated at 12 hrs post cell seeding measured at 72 to 144 hrs post cell seeding by Cell-Titer Glo assay. It counts as functional, cell-based.
Experiment [6] has as its system LNCaP. Description: Antiproliferative activity against human LNCAP cells treated at 12 hrs post cell seeding measured at 72 to 144 hrs post cell seeding by Cell-Titer Glo assay. It counts as functional, cell-based.
The subject of experiment [7] is LNCaP. The experiment in a line: Antiproliferative activity against human LNCAP cells. It counts as functional, cell-based.

Some results are limits rather than exact numbers.

Compound `Cc1noc(C)c1-c1ccc2c(c1)OC(c1cc(Cl)cc(Cl)c1)C(=O)N2` (stereo not given) displayed an IC50 in experiment [1] of 1330 nM. Besides, in experiment [2], the ΔTm turned out to be 6.3 °C.
The like results for `Cc1noc(C)c1-c1ccc2c(c1)O[C@H](CC1CC1)C(=O)N2CCN(C)C` were, in that order, 860 nM and 8.4 °C.
The like results for `Cc1noc(C)c1-c1ccc2c(c1)OC(c1ccc(Cl)cc1)C(=O)N2` (stereo not given) were, in that order, 880 nM and 5.4 °C.
The like results for `Cc1noc(C)c1-c1ccc2c(c1)OC(c1cccc(Cl)c1)C(=O)N2` (stereo not given) were, in that order, 510 nM and 4.8 °C.
`Cc1noc(C)c1-c1ccc2c(c1)OC(c1ccccc1Cl)C(=O)N2` (stereo not given) came in with an IC50 in experiment [1] of 490 nM. The ΔTm in experiment [2] came to 5.1 °C.
Regarding `Cc1noc(C)c1-c1ccc2c(c1)OC(CC1CCC1)C(=O)N2` (stereo not given), half-maximal inhibition in experiment [1] (IC50) was put at 200 nM. Also, the ΔTm in experiment [2] amounted to 8.1 °C.
The like results for `Cc1noc(C)c1-c1ccc2c(c1)O[C@@H](CC1CC1)C(=O)N2` were, in that order, 3540 nM and 3.9 °C.
`Cc1noc(C)c1-c1ccc2c(c1)OC(Cc1ccccc1)C(=O)N2` (stereo not given) registered an IC50 in experiment [1] of more than 20000 nM. Besides, the ΔTm in experiment [2] came to 3 °C.
In the case of `Cc1noc(C)c1-c1ccc2c(c1)OC(c1cccc(C(F)(F)F)c1)C(=O)N2` (stereo not given), the IC50 in experiment [1] came to 2270 nM. In addition, the ΔTm in experiment [2] worked out at 3.3 °C.
The like results for `Cc1noc(C)c1-c1ccc2c(c1)OC(CC1CCCCC1)C(=O)N2` (stereo not given) were, in that order, 1170 nM and 6.9 °C.
The like results for `Cc1noc(C)c1-c1ccc2c(c1)OC(c1ccc(Cl)c(Cl)c1)C(=O)N2` (stereo not given) were, in that order, 4250 nM and 5.7 °C.
In the case of `CNC(=O)c1ccc(N2C(=S)N(c3ccc(C#N)c(C(F)(F)F)c3)C(=O)C2(C)C)cc1F` [ENZALUTAMIDE], the IC50 in experiment [3] was 20800 nM; in experiment [4] it was more than 30000 nM.
On to `Cc1noc(C)c1-c1ccc2c(c1)O[C@H](CC1CC1)C(=O)N2CC(=O)N(C)C`, for which the IC50 in experiment [1] is 3640 nM. In addition, in experiment [2], the ΔTm worked out at 6.9 °C.
Turning to `Cc1noc(C)c1-c1ccc2c(c1)OC(CC(C)C)C(=O)N2` (stereo not given), the IC50 in experiment [1] is 180 nM; in experiment [3], 540 nM; in experiment [4], 380 nM; in experiment [5] it was 6500 nM; in experiment [6], 570 nM. In addition, in experiment [2], the ΔTm was 9.4 °C.
With `CCCCC1Oc2cc(-c3c(C)noc3C)ccc2NC1=O` (stereo not given), the IC50 was determined as 200 nM in experiment [1]; 590 nM in experiment [3]; 1140 nM in experiment [4]; 4520 nM in experiment [5]; 820 nM in experiment [6]. Also, the ΔTm in experiment [2] amounted to 7.8 °C.
As for `COC(=O)CN1C(=O)[C@@H](CC2CC2)Oc2cc(-c3c(C)noc3C)ccc21`, it took 360 nM to reach half-maximal inhibition in experiment [1] (IC50). Besides, the ΔTm in experiment [2] came out at 8.9 °C.
The like results for `CSCCC1Oc2cc(-c3c(C)noc3C)ccc2NC1=O` (stereo not given) were, in that order, 530 nM and 6.9 °C.
The like results for `Cc1noc(C)c1-c1ccc2c(c1)OC(C(C)C)C(=O)N2` (stereo not given) were, in that order, 1170 nM and 6.9 °C.
In turn, `Cc1sc2c(c1C)C(c1ccc(Cl)cc1)=N[C@@H](CC(=O)Nc1ccc(O)cc1)c1nnc(C)n1-2` [BIRABRESIB] had an IC50 in experiment [7] of 111 nM.
For the compound `Cc1noc(C)c1-c1ccc2c(c1)OC(C(C)(C)C)C(=O)N2` (stereo not given), in experiment [1], 270 nM corresponded to half-maximal inhibition (IC50). In addition, the ΔTm in experiment [2] is 7.9 °C.
The like results for `Cc1noc(C)c1-c1ccc2c(c1)OC(c1cccc(F)c1)C(=O)N2` (stereo not given) were, in that order, 620 nM and 7.5 °C.
`Cc1noc(C)c1-c1ccc2c(c1)O[C@H](Cc1ccccc1)C(=O)N2` had an IC50 in experiment [1] of 6070 nM. Moreover, the ΔTm in experiment [2] was determined as 3.2 °C.
`Cc1noc(C)c1-c1ccc2c(c1)OC(c1ccccc1C(F)(F)F)C(=O)N2` (stereo not given) returned an IC50 in experiment [1] of 1140 nM. The ΔTm in experiment [2] was 5.4 °C.
In experiment [1], `CCCC1Oc2cc(-c3c(C)noc3C)ccc2NC1=O` (stereo not given) gave an IC50 of 290 nM. Moreover, the ΔTm in experiment [2] is 8.1 °C.
Take `Cc1noc(C)c1-c1ccc2c(c1)OC(CC1CC1)C(=O)N2` (stereo not given): the IC50 in experiment [1] is 400 nM; in experiment [3], 590 nM; in experiment [4], 410 nM; in experiment [5], 1940 nM; in experiment [6] it was 1030 nM. The ΔTm in experiment [2] stood at 8.7 °C.
The compound `Cc1noc(C)c1-c1ccc2c(c1)O[C@H](CC1CC1)C(=O)N2CC(=O)O` displayed an IC50 in experiment [1] of 2120 nM. Also, the ΔTm in experiment [2] was 6.9 °C.
The like results for `Cc1noc(C)c1-c1ccc2c(c1)OC(Cc1ccc(Cl)cc1)C(=O)N2` (stereo not given) were, in that order, more than 20000 nM and 2.1 °C.
In experiment [7], `CCNC(=O)C[C@@H]1N=C(c2ccc(Cl)cc2)c2cc(OC)ccc2-n2c(C)nnc21` [MOLIBRESIB] came in with an IC50 of 356 nM.
On to `Cc1noc(C)c1-c1ccc2c(c1)O[C@H](CC1CC1)C(=O)N2C`, for which the midpoint of inhibition in experiment [1], the IC50, lay at 520 nM. Further, the ΔTm in experiment [2] turned out to be 7.7 °C.
The like results for `Cc1noc(C)c1-c1ccc2c(c1)OC(CC1CCCC1)C(=O)N2` (stereo not given) were, in that order, 290 nM and 7.8 °C.

(Values after ChEMBL document CHEMBL4152259, “Benzoxazinone-containing 3,5-dimethylisoxazole derivatives as BET bromodomain inhibitors for treatment of castration-resistant prostate cancer” (Eur J Med Chem, 2018).)
